In one assay the target is T1, HER2 enzyme (Homo sapiens, UniProt P04626).
T1 construct: purchased Reaction Biology Corp. (San Diego, USA); outsourced assay service
The experiment in a line: Biochemical kinase assay for HER2 (Reaction Biology Corp.). The settings on record: ATP 10 μM, 3-fold dilution from 10 μM. The method, then:
A biochemical kinase assay for HER2 was conducted through Reaction Biology Corp. (San Diego, USA).

The subject of the next assay is BT-474 cancer cells. The assay can be described thus: Inhibition of BT-474 cell proliferation (CellTiter-Glo). Type of assay: cell-based. The settings on record: Homo sapiens, BT-474 cells, 120 hours. The procedure, abridged:
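BT-474 cells in RPMI-1640 with 20% FBS, seeded 48 h before dosing with 11 three-fold dilutions (final 0.2 nM to 10 μM). Viability read by CellTiter-Glo luminescence 120 h after treatment, triplicate tests. GI50 derived from growth rate (%) versus control.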

The next assay deals with N-87 cancer cells. The experiment in a line: Inhibition of N-87 cell proliferation (CellTiter-Glo). The assay is classed as cell-based. The settings on record: N-87 cells, 72 hours. The method, then:
N-87 cancer cells were cultured by using RPMI-1640 medium with 10% FBS. The N-87 cancer cells were seeded to a white clear bottom 96 well plate (Corning) at 5,000 cells per well 24 hours before the […] cancer cells were treated with Example Compounds. Example Compounds were diluted in dimethylsulfoxide (5-fold diluted, total 11 concentrations) and 0.5 μL each was injected so that the final concentration was […]. For the measurement of living cells, the cells were stored at room temperature for 10 minutes using the CellTiter-Glo cell viability reagent (Promega) after 72 hours after the treatment of Example Compounds, and then the luminescence intensity was measured using the reader (SynergyNeo, Biotek).
The result value was calculated as a cell growth rate (%) compared to a control group. Graphs were plotted and GI50 values were calculated using the GraphPad Prism version 8.0 program, and the results are shown in Table 18 below.

The test system of the next assay is Ba/F3 HER2 L755P cells. The experiment in a line: Inhibition of transduced Ba/F3 cell proliferation, HER2 L755P. The settings on record: Mus musculus, BaF3, 72 hours, CellTiter-Glo. The assay is classed as cell-based. The method, then:
(§1) Transduced Ba/F3 cells were cultured by adding 1 μg/mL of puromycin (Invitrogen) to a medium (RPMI-1640) containing 10% fetal bovine serum (FBS). 3,000 Ba/F3 HER2 WT cells were seeded to a white clear bottom 96 well plate (Corning) 24 hours before the Ba/F3 HER2 WT cells were treated with Example compounds. For Ba/F3 HER2 L755S, Ba/F3 HER2 L755P, Ba/F3 HER2 T862A, and Ba/F3 HER2 L869R/T798I cells, 5,000 cells each were seeded to a white clear bottom 96 well plate (Corning) 24 hours before the cells were treated with the compounds. Example Compounds were diluted in dimethylsulfoxide (3-fold diluted, total 11 concentrations) and 0.5 μL each was injected so that the final concentration was 0.2 nM to 10 μM. For the measurement of living cells, the cells were stored at room temperature for 10 minutes using the CellTiter-Glo cell viability reagent (Promega) after 72 hours after the treatment of Example Compounds, and then the luminescence intensity was measured using the reader (SynergyNeo, Biotek). Each test was repeated twice.
(§2) The result value was calculated as a cell growth rate (%) compared to a control group, and the GI50 values were calculated using the software (GraphPad Prism version 8.0), and the results are shown in Table 19 below.
For orientation: Cellular ATP, detected with luciferase, serves as a proxy for viable cell number.

The subject of another assay is Ba/F3 HER2 L755S cells. The assay can be described thus: Inhibition of transduced Ba/F3 cell proliferation, HER2 L755S. The assay is classed as cell-based. The settings on record: Mus musculus, BaF3, 72 hours, CellTiter-Glo. The protocol: as §1, §2
Assay [1] has as its system Ba/F3 HER2 L869R/T798I cells. The experiment in a line: Inhibition of transduced Ba/F3 cell proliferation, HER2 L869R/T798I. Type of assay: cell-based. The settings on record: Mus musculus, BaF3, 72 hours, CellTiter-Glo. The protocol:
as §1, §2

The test system of another assay is Ba/F3 HER2 T862A cells. The experiment in a line: Inhibition of transduced Ba/F3 cell proliferation, HER2 T862A. The assay is classed as cell-based. The settings on record: Mus musculus, BaF3, 72 hours, CellTiter-Glo. The protocol:
as §1, §2

The next assay has as its system Ba/F3 HER2 WT cells. The experiment in a line: Inhibition of transduced Ba/F3 cell proliferation, HER2 WT. The assay is classed as cell-based. The settings on record: Mus musculus, BaF3, 72 hours, CellTiter-Glo. The protocol: as §1, §2
For another assay, the system named is HER2 mutant cancers. The settings on record: cited from earlier work; for response of patients with HER2 mutation: phase 1 and 2 clinical trials; for objective response rate (ORR): SUMMIT clinical trial.

Read-outs that look alike come from different tables or passages of the source.

T1 sequence (P04626 23-1255): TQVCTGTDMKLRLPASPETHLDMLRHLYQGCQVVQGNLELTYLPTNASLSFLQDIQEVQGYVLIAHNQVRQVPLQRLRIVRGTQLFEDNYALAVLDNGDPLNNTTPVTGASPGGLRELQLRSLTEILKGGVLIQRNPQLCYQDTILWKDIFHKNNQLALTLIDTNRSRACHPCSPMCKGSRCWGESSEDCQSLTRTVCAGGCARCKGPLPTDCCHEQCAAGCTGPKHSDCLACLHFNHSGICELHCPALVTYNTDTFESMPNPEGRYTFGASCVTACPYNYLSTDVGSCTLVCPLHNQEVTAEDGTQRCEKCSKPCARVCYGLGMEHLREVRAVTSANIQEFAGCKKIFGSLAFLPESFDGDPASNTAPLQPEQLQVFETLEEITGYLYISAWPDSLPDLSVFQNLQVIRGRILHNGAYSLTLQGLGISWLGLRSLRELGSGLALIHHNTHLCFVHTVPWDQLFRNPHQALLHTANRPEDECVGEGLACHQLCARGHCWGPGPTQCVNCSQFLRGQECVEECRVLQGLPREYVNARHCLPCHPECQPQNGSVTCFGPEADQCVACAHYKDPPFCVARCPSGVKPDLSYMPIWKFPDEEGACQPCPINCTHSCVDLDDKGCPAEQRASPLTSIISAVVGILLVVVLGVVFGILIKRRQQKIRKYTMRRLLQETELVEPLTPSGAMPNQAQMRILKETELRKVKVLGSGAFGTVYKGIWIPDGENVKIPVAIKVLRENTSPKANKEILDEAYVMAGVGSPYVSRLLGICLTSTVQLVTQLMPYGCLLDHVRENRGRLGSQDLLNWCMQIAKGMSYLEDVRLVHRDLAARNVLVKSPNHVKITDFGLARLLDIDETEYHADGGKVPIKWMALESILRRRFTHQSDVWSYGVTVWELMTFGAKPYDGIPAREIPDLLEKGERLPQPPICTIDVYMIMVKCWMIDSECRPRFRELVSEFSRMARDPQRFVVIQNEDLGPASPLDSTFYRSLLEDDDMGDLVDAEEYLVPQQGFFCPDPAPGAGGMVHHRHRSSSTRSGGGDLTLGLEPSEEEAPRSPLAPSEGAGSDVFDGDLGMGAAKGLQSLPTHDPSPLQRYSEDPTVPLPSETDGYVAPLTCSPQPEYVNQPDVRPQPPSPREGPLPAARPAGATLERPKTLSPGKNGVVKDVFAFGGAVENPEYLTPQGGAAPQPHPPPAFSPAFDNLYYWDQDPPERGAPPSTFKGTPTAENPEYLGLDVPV

The term IC50 denotes the concentration that inhibits the measured activity by half. Read a high IC50 as weaker potency in that assay. As a reminder, the GI50 is the concentration that inhibits growth by half. `C=CC(=O)N1CCC(Nc2cc3c(Nc4cc(Cl)c(Oc5cccc(F)c5)cc4OC)ncnc3cc2OC)CC1` [Example 2, 1-(4-((4-((5-chloro-4-(3-fluorophenoxy)-2-methoxyphenyl)amino)-7-methoxyquinazolin-6-yl)amino)piperidin-1-yl)prop-2-en-1-one] displayed an IC50 on HER2 enzyme of at most 50 nM. Moreover, the GI50 in the assay with BT-474 cancer cells and with N-87 cancer cells was at most 50 nM throughout.

As for `C=CC(=O)N1CCC(Oc2cc3c(Nc4cc(Cl)c(Oc5cccc(F)c5)cc4OC)ncnc3cc2OC)CC1` [Example 8, 1-(4-((4-((5-chloro-4-(3-fluorophenoxy)-2-methoxyphenyl)amino)-7-methoxyquinazolin-6-yl)oxy)piperidin-1-yl)prop-2-en-1-one], the IC50 on HER2 enzyme is at most 50 nM. The GI50 with BT-474 cancer cells and in the assay on N-87 cancer cells was at most 50 nM throughout.

For `COc1cc2ncnc(Nc3cc(Cl)c(Oc4cccc(F)c4)cc3OC)c2cc1NC(=O)/C=C/CN(C)C` [Example 25, (E)-N-(4-((5-chloro-4-(3-fluorophenoxy)-2-methoxyphenyl)amino)-7-methoxyquinazolin-6-yl)-4-(dimethylamino)but-2-enamide], the IC50 on HER2 enzyme was at most 50 nM. The GI50 in the assay on BT-474 cancer cells and with N-87 cancer cells was at most 50 nM each time.

For the compound `COc1cc2ncnc(Nc3cc(C)c(Oc4ccn5ncnc5c4)cc3OC)c2cc1NC(=O)/C=C/[C@H]1CCCN1C` [Example 29, (R,E)-N-(4-((4-([1,2,4]triazolo[1,5-a]pyridin-7-yloxy)-2-methoxy-5-methylphenyl)amino)-7-methoxyquinazolin-6-yl)-3-(1-methylpyrrolidin-2-yl)acrylamide], the IC50 against HER2 enzyme was at most 50 nM. Also, the GI50 in the assay on BT-474 cancer cells and with N-87 cancer cells was at most 50 nM in each case.

At HER2 enzyme, `COc1cc2ncnc(Nc3cc(Cl)c(Oc4cccc(F)c4)cc3OC)c2cc1NC(=O)/C=C/[C@H]1CCCN1C` [Example 30, (R,E)-N-(4-((5-chloro-4-(3-fluorophenoxy)-2-methoxyphenyl)amino)-7-methoxyquinazolin-6-yl)-3-(1-methylpyrrolidin-2-yl)acrylamide] gave an IC50 of at most 50 nM. The GI50 in the assay with BT-474 cancer cells and with N-87 cancer cells was at most 50 nM in each case.

For `COc1cc2ncnc(Nc3cc(Cl)c(Oc4ccccn4)cc3OC)c2cc1NC(=O)/C=C/[C@H]1CCCN1C` [Example 33, (R,E)-N-(4-((5-chloro-2-methoxy-4-(pyridin-2-yloxy)phenyl)amino)-7-methoxyquinazolin-6-yl)-3-(1-methylpyrrolidin-2-yl)acrylamide], the IC50 against HER2 enzyme was at most 50 nM. The GI50 in the assay on BT-474 cancer cells and in the assay on N-87 cancer cells was at most 50 nM each time.

Turning to `COc1cc2ncnc(Nc3cc(Cl)c(Oc4cccc(F)c4)cc3OC)c2cc1NC(=O)/C(F)=C\[C@H]1CCCN1C` [Example 42, (R,E)-N-(4-((5-chloro-4-(3-fluorophenoxy)-2-methoxyphenyl)amino)-7-methoxyquinazolin-6-yl)-2-fluoro-3-(1-methylpyrrolidin-2-yl)acrylamide], the GI50 (with Ba/F3 HER2 L755P cells; in the assay with Ba/F3 HER2 L755S cells; in assay [1]; in the assay with BT-474 cancer cells; in the assay with Ba/F3 HER2 T862A cells; in the assay with Ba/F3 HER2 WT cells) was at most 50 nM in each case. Besides, the GI50 in the assay with N-87 cancer cells is at most 50 nM. Further, the IC50 against HER2 enzyme is at most 50 nM.

For `COc1cc2ncnc(Nc3cc(C(F)(F)F)c(Oc4ccn5ncnc5c4)cc3OC)c2cc1NC(=O)/C(F)=C/[C@H]1CCCN1C` [Example 54, (R,Z)—N-(4-((4-([1,2,4]triazolo[1,5-a]pyridin-7-yloxy)-2-methoxy-5-(trifluoromethyl)phenyl)amino)-7-methoxyquinazolin-6-yl)-2-fluoro-3-(1-methylpyrrolidin-2-yl)acrylamide], at HER2 enzyme, the IC50 is at most 50 nM. In addition, the GI50 in the assay on BT-474 cancer cells was at most 50 nM.

`COc1cc(Oc2ccn3ncnc3c2)c(C)cc1Nc1ncnc2ccc(NC(=O)/C(F)=C/[C@H]3CCCN3C)cc12` [Example 92, (R,Z)—N-(4-((4-([1,2,4]triazolo[1,5-a]pyridin-7-yloxy)-2-methoxy-5-methylphenyl)amino)quinazolin-6-yl)-2-fluoro-3-(1-methylpyrrolidin-2-yl)acrylamide] yielded an IC50 on HER2 enzyme of at most 50 nM. The GI50 in the assay on BT-474 cancer cells is at most 50 nM.

In the case of `CCOc1cc2ncnc(Nc3cc(C)c(Oc4ccn5ncnc5c4)cc3OC)c2cc1NC(=O)/C(F)=C\[C@H]1CCCN1C` [Example 93, (R,E)-N-(4-((4-([1,2,4]triazolo[1,5-a]pyridin-7-yloxy)-2-methoxy-5-methylphenyl)amino)-7-ethoxyquinazolin-6-yl)-2-fluoro-3-(1-methylpyrrolidin-2-yl)acrylamide], the 50% growth inhibitory concentration (GI50) in the assay on BT-474 cancer cells and with N-87 cancer cells was at most 50 nM in each case.

Take `COCCOc1cc2ncnc(Nc3cc(C)c(Oc4ccn5ncnc5c4)cc3OC)c2cc1NC(=O)/C(F)=C/[C@H]1CCCN1C` [Example 95, (R,Z)—N-(4-((4-([1,2,4]triazolo[1,5-a]pyridin-7-yloxy)-2-methoxy-5-methylphenyl)amino)-7-(2-methoxyethoxy)quinazolin-6-yl)-2-fluoro-3-(1-methylpyrrolidin-2-yl)acrylamide]: the GI50 in the assay with BT-474 cancer cells and in the assay on N-87 cancer cells was at most 50 nM throughout.

On to `CCOc1cc(Oc2ccn3ncnc3c2)c(C)cc1Nc1ncnc2cc(OC)c(NC(=O)/C(F)=C\[C@H]3CCCN3C)cc12` [Example 104, (R,E)-N-(4-((4-([1,2,4]triazolo[1,5-a]pyridin-7-yloxy)-2-ethoxy-5-methylphenyl)amino)-7-methoxyquinazolin-6-yl)-2-fluoro-3-(1-methylpyrrolidin-2-yl)acrylamide], for which the concentration for 50% growth inhibition (GI50) with BT-474 cancer cells and in the assay on N-87 cancer cells was at most 50 nM each time.

On HER2 enzyme, `COc1cc2ncnc(Nc3cc(C)c(Oc4ccn5ncnc5c4)cc3OC)c2cc1NC(=O)/C(F)=C/[C@H]1CCCN1C` [Example 111, (R,Z)—N-(4-((4-([1,2,4]triazolo[1,5-a]pyridin-7-yloxy)-2-methoxy-5-methylphenyl)amino)-7-methoxyquinazolin-6-yl)-2-fluoro-3-(1-methylpyrrolidin-2-yl)acrylamide] gave an IC50 of at most 50 nM. Moreover, the GI50 in the assay with BT-474 cancer cells and in the assay with N-87 cancer cells was at most 50 nM in each case.

Consider `COc1cc2ncnc(Nc3cc(C)c(Oc4ccn5ncnc5c4)cc3OC)c2cc1NC(=O)/C(F)=C\[C@H]1CCCN1` [Example 134, (R,E)-N-(4-((4-([1,2,4]triazolo[1,5-a]pyridin-7-yloxy)-2-methoxy-5-methylphenyl)amino)-7-methoxyquinazolin-6-yl)-2-fluoro-3-(pyrrolidin-2-yl)acrylamide], for which the GI50 with BT-474 cancer cells and in the assay on N-87 cancer cells was at most 50 nM throughout.

As for `COc1cc2ncnc(Nc3cc(C)c(Oc4ccn5ncnc5c4)cc3OC)c2cc1NC(=O)/C(Cl)=C\[C@H]1CCCN1C` [Example 136, (R,E)-N-(4-((4-([1,2,4]triazolo[1,5-a]pyridin-7-yloxy)-2-methoxy-5-methylphenyl)amino)-7-methoxyquinazolin-6-yl)-2-chloro-3-(1-methylpyrrolidin-2-yl)acrylamide], the GI50 in the assay with BT-474 cancer cells and with N-87 cancer cells was at most 50 nM throughout.

As for `COc1cc2ncnc(Nc3ccc(F)c(Cl)c3)c2cc1NC(=O)/C=C/CN1CCCCC1` [dacomitinib], the “response of patients with HER2 mutation” value in the assay on HER2 mutant cancers was “partial responses”.

Turning to `CCOc1cc2ncc(C#N)c(Nc3ccc(OCc4ccccn4)c(Cl)c3)c2cc1NC(=O)/C=C/CN(C)C` [neratinib], the entries for the “objective response rate (ORR)” value in the assay on HER2 mutant cancers (HER2 mutant breast cancer patients), in the assay on HER2 mutant cancers (HER2 mutant lung cancer patients) and in the assay with HER2 mutant cancers (other cancers having HER2 mutations) were 24%, 3.8% and 0%, respectively. In the assay on HER2 mutant cancers, the “response of patients with HER2 mutation” value is on record as “partial responses”.
